According to PMC4484790 (Virology, 2014):
Each block holds one compound with its values, some of them ahead of it.

Legend:
[1] = PK of orally administered TFV; type: in vivo
in vivo = test: in vivo; set-up: species or system non-humanized mice; conditions: female, mouse, po, 61.5 mg/kg
HIV [2] = conditions: Partners PrEP study; oral; serodiscordant couples; ref Baeten et al., 2012; cited from earlier work
HIV [3] = conditions: hu-mice; oral administration at allometric dosing levels; ref Neff et al., 2010; cited from earlier work
[4] = female, BALB/c Rag1−/− or Rag2−/−γc−/− (humanized, Hu-HSC RAG-hu), mouse, intestinal tissue, po, 61.5 mg/kg
[5] = female, BALB/c Rag1−/− or Rag2−/−γc−/− (humanized, Hu-HSC RAG-hu), mouse, plasma, po, 61.5 mg/kg
[6] = female, BALB/c Rag1−/− or Rag2−/−γc−/− (humanized, Hu-HSC RAG-hu), mouse, rectal tissue, po, 61.5 mg/kg
[7] = female, BALB/c Rag1−/− or Rag2−/−γc−/− (humanized, Hu-HSC RAG-hu), mouse, vaginal tissue, po, 61.5 mg/kg

AUC24h intestinal:rectal tissue ratio ([1]; hu-mice, TFV oral 61.5 mg/kg x 5 days): 2.45
Compound: CC(Cn1cnc2c(N)ncnc21)OCP(=O)(O)OP(=O)(O)OP(=O)(O)O (stereo in doubt) [TFV-DP, Tenofovir Diphosphate]

AUC(0-t) (in vivo): 17300 ng·h/mL | Tmax (in vivo): 8 h | Cmax (in vivo; Cmax (median)): 1550 ng/mL | AUC(0-t) ([1]; female, BALB/c Rag1−/− or Rag2−/−γc−/− (humanized, Hu-HSC RAG-hu), mouse, in vivo, po, 61.5 mg/kg): 11300 ng·h/mL | Cmax ([1]; female, BALB/c Rag1−/− or Rag2−/−γc−/− (humanized, Hu-HSC RAG-hu), mouse, in vivo, po, 61.5 mg/kg, Cmax (median)): 1990 ng/mL | Tmax [1, 4]: 2 h | half-life [1, 4]: 13.9 h | Tmax [1, 5]: 2 h | half-life [1, 5]: 17 h | Tmax [1, 6]: 2 h | half-life [1, 6]: 13.5 h | Tmax [1, 7]: 2 h | half-life [1, 7]: 9 h
Compound: C[C@H](Cn1cnc2c(N)ncnc21)OCP(=O)(O)O [TFV, Tenofovir]
reduction in HIV-1 incidence (HIV [2]): 67%

Compound: Maraviroc [MVC]
protection against HIV vaginal challenge (HIV [3]): fully protective
